The subject of one data set is Molt4 cells. The data set is described as follows: Mitochondrial membrane potential assay (JC-1). It counts as cell-based, Human. Particulars: Molt4 cells, 0.1, 0.25 and 0.5 μM, 48 h. As to the method: Molt4 cells were seeded in 12 well plate (0.5×10^5 cells/ml), treated with different concentration of ASR6 for 48 h, (DMSO treated cells was used as vehicle control), washed with 1× phosphate buffered saline and stained with JC-1 dye (5,5′,6,6′-Tetrachloro-1,1′,3,3′-tetraethylbenzimidazolo carbocyanine iodide (0.5 μg/ml) (Calbiochem, USA) in 1 ml of media, incubated at 37° C. for 30 min. Samples were washed with phosphate buffered saline and finally resuspended the cell pellet in 300 μl of 1× phosphate buffered saline and acquired (FACSVerse™, BD Biosciences, USA) using Cell Quest Pro Software. Minimum of 10,000 cells were acquired per sample and 2, 4-Dinitrophenol (2, 4-DNP) used as positive control. Results were analyzed Flowing Software (Version 2.5) and data were presented.

The nature of data set [1]: Cytotoxicity in HEK293T cells. It counts as cell-based. The settings on record: human, HEK293T cells (human embryonic kidney); read-out: Cytotoxicity IC 50 in μM (Cell lines) HEK293T. Here is the method: Human cancer cell lines, K562, MCF7, HeLa and HEK 293T were purchased from National Centre for Cell Science, Pune, India. Cells were grown in RPMI 1640/MEM/DMEM supplemented with 10% heat-inactivated fetal bovine serum (FBS), 100 U/mL of Penicillin, and 100 μg of streptomycin/mL and incubated at 37° C. in a humidified atmosphere containing 5% CO2.
The human T cell leukemia cell line Molt4, Human acute lymphoblastic leukemia (ALL) cell line Nalm6, Human acute myelocytic leukemia (AML) cell line Reh, chronic myelogenous leukemia (CML) cell line K562, Human breast adenocarcinoma cell lines like MCF7 and human kidney cell line HEK 293T (Human embryonic kidney cell line) were selected for the purpose of preliminary anticancer screening of newly synthesized compounds (ASR1 to ASR15). […]
To determine the growth inhibitory activity of the drug, 0.5×10^5 cell/ml were plated in 24 well (Biofil, USA.) in 1 ml of complete medium and treated with various concentration of the compound to test, cells were stained with 0.4% trypan blue and counted on a hemocytometer after treatment with compounds at 48 and 72 h time point. […]

Data set [2] has as its target T1, recombinant human DNA topoisomerase IIα (Homo sapiens, UniProt P11388).
T1 construct: purchased TopoGEN; Inc
The experiment in a line: Topoisomerase IIα DNA relaxation assay. It counts as biochemical. Particulars: 0, 10, 25, 50 and 100 μM, supercoiled pBS-SK+ plasmid, 37° C. 30 min, dose dependent. As to the method: The topoisomerase IIα assay was performed, in a reaction mixture containing supercoiled plasmid DNA (pBS-SK+) was isolated using Gen Elute plasmid miniprep kit (Sigma Aldrich), according to manual instructions. ˜200 ng plasmid and two units of recombinant human DNA topoisomerase IIα (TopoGEN. Inc) along with the different concentrations of ASR6 (0, 10, 25, 50 and 100 μM) was added at RT for 5 min; equal amount of DMSO was used as vehicle control. Reaction was carried out at 37° C. for 30 min in a relaxation buffer 1× topo II buffer (50 mM Tris-HCl (pH 8.0), 10 mM NaCl, 10 mM MgCl2, 5 mM ATP, 0.5 mM dithiothreitol and 30 μg BSA/ml) and reactions were terminated by adding 5× stop buffer containing 5% sarkosyl, 0.0025% bromophenol blue, 25% glycerol. The DNA samples were electrophoresed on 1% agarose gel at 45 volts for 4 h with 0.5×TBE (Tris-borate-EDTA). The gels were stained for 30 min in milli Q water containing ethidium bromide (0.5 mg/ml) followed by distaining for 30 min in milli Q water and images were taken. […] VP16 (Topo II inhibitor) were used as positive control (FIG. 6).

T1 sequence (P11388 whole entry): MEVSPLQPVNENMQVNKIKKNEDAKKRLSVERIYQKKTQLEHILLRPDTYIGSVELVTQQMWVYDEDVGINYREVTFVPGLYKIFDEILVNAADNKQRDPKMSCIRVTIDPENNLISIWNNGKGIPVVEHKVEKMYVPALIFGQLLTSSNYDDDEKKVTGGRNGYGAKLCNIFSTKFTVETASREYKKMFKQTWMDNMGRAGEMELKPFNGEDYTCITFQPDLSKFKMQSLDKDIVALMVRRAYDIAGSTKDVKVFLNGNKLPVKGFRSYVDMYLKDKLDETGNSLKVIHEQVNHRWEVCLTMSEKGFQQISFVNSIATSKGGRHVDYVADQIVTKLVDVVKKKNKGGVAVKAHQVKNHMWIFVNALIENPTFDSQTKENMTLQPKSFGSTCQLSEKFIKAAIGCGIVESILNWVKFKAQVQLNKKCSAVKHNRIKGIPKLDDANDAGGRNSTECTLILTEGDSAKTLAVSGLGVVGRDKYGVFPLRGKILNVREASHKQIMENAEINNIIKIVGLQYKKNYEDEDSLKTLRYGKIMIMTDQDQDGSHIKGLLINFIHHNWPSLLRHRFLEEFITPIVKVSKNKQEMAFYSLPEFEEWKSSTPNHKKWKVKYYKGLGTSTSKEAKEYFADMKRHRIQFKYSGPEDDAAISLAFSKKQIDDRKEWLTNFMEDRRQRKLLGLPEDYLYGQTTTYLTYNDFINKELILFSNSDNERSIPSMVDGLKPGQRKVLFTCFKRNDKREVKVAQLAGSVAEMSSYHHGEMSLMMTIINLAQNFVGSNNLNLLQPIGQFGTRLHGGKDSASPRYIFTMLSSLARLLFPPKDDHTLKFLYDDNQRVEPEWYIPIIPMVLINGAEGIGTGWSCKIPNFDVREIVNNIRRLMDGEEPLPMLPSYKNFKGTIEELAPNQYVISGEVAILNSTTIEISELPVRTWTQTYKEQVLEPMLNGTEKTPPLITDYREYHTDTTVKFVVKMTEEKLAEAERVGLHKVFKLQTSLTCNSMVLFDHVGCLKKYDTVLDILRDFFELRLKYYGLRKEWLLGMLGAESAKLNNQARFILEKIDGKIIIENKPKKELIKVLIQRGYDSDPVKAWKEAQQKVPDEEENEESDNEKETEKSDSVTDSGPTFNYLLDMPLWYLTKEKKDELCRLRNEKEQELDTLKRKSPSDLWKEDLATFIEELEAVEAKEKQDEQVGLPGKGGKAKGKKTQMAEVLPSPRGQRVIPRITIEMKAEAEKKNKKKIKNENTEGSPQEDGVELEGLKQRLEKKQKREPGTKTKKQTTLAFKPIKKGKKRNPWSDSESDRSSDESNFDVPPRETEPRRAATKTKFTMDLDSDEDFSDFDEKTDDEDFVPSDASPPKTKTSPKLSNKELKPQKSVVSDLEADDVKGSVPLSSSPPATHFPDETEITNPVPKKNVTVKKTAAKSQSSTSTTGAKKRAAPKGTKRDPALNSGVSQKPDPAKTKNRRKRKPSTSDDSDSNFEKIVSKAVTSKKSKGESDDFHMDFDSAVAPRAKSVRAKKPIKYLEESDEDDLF

Consider `CCOC(=O)c1[nH]c(-c2ccc(Cl)cc2)cc1-c1cccnc1` [ASR6, Ethyl 5-(4-chlorophenyl)-3-(pyridin-3-yl)-1H-pyrrole-2-carboxylate], for which the Mitochondrial membrane potential result with Molt4 cells is given as “reduction in mitochondrial membrane potential”. In addition, the IC50 in data set [1] came out at 0.866 µM. In data set [2], the “Inhibition of topoisomerase IIα activity (DNA relaxation)” value is reported as “can inhibit topoisomerase Ha enzymatic activity”.

Source of the values: patent publication US20180251425A1, “2,3,5 TRISUBSTITUTED PYRROLE DERIVATIVES AS TOPOISOMERASE INHIBITORS AND THERAPEUTIC USES THEREOF” (UNIVERSITY OF MYSORE, priority 2015, published 2018).
